Results: US11912710B2 (UPPTHERA, INC., priority 2021, dated 2024)

How the values were obtained:
Assay type in all cases: cell-based
[1] = molecular target: T1, PLK1 (Homo sapiens, UniProt P53350); assay: Luciferase assay for PLK1 in HeLa LgBit (Plk1-HiBit KI) cell line; settings: 300 nM compound, luminescence after 9 hours, read-out: Activity: ratio of the luminescense value of compound treatment group to DMSO treatment group
T1 construct: endogenous in cells; host or cells: HeLa LgBit (Plk1-HiBit KI): HeLa cells stably expressing LgBit, with HiBit knocked into the endogenous Plk1 locus by CRISPR/Cas9
T1 sequence (P53350 whole entry): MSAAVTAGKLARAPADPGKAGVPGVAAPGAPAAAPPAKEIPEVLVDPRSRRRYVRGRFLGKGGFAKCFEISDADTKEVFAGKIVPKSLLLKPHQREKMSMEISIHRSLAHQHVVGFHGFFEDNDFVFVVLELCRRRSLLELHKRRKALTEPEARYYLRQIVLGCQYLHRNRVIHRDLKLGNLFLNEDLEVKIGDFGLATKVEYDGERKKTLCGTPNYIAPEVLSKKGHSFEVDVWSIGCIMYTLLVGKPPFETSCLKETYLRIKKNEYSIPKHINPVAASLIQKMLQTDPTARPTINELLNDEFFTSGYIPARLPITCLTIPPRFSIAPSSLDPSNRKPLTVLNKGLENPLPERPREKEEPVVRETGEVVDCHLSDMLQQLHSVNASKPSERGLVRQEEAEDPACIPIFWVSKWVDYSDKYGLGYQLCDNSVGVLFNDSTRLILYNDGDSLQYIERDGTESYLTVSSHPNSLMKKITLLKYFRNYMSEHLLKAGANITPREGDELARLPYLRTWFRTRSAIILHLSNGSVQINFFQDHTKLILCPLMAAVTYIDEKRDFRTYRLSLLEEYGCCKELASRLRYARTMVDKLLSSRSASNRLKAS
Procedure: 2. Luciferase Assay for PLK1
(1) Preparation and Culture of HeLa LgBit (Plk1-HiBit KI) Cell Line
A HeLa cell line in which the LgBit vector was transfected and expressed stably was prepared. Then, after constructing gRNA and donor to express the HiBit amino acid sequence behind the C-terminal of the Plk1 gene, which was inherent in the cell, it was inserted into the cell together with a vector capable of expressing CRISPR/Cas9. Only the cells in which the insertion was completed and knock-in had progressed were selected, sub-cultured and used.
(2) Treatment of Compounds of the Present Invention and Method of Luciferase Assay
In the case of HeLa LgBit (Plk1-HiBit KI), the compounds were treated after being released after thymidine block, and the process was as follows. Thymidine (Sigma-Aldrich Cat. No. T9250-5G) was completely dissolved in DW and used in the experiment. For thymidine block, the products were treated with 2 mM of thymidine and then incubated for 24 hours. For release and chemical treatment, the medium was suctioned and washed with 1×PBS. TrypLE™ was added and incubated in 37° C. CO2 incubator for 5 min. Cells neutralized by adding complete media were counted through a counter. For each well of a 96-well culture plate (SPL), 3.3×10^4 cells and a total medium volume of 150 μL were seeded and incubated in a CO2 incubator.
Each cell line was incubated in a CO2 incubator for 18 hours, and Endurazine was added to each well to make up 4% of the total volume. After adding the compound of the present invention in a 96-well white plate (SPL) to a concentration of 300 nM, the wavelength of the plate reader (BMG Labtech, CLARIOstar Plus) was set to […], and then the luminescence was tracked in real time.
In Table 2, Activity represents the ratio of the luminescense value of each Exemplary Compound treatment group to DMSO treatment group (+++: <0.3, ++<0.6, +<0.7).

[2] = test system: NCI-H526 cell line; assay: Cell viability assay for H526 cell line; settings: Homo sapiens, NCI-H526, 120 h; H526 cells, 5 days, EZ-Cytox, 3000 nM to 0.46 nM
Procedure: 3. Cell Viability Assay for H526 Cell Line
(1) Culture of NCI-H526 Cell Line
(2) Treatment of Compounds of the Present Invention and Method of Cell Viability Assay
After treating the compound to each well to make the total volume of 200 μL, it was cultured in a CO2 incubator (Thermo Fisher Science, Cat. No. 4111) for 5 days.
The absorbance of the completely cultured sample was measured by setting the wavelength of a plate reader (BMG Labtech, CLARIOstar Plus) to […], and was measured after shaking for 3 minutes in a plate reader before measurement.
In Table 3, Activity represents IC50 value of each Exemplary Compound treatment group to H526 cell line (A: <30 nM, B: <50 nM, C: <100 nM, D: <200 nM, E: <400 nM).

[3] = test system: MRC-5 cell line; assay: Cell viability assay (cytotoxicity) for MRC-5 cell line; settings: Homo sapiens, MRC5, 120 h; MRC-5 normal cell line, 5 days, EZ-Cytox, 10000 nM to 1.52 nM; read-out: Activity: IC50 value to MRC-5 cell line (Exemplary Compounds)
Procedure: 4. Cell Viability Assay for MRC-5 Cell Line
(1) Culture of MRC-5 Cell Line
Passage of cultured cells was maintained within P15.
(2) Treatment of Compounds of the Present Invention
Then, it was cultured in 37° C.
(3) Cytotoxicity Experiment
CO2 incubator for 4 hours.
Cell Viability Assay for MRC-5 cell line

| remaining activity at 0.3 µM [1] [%] | SMILES | IC50 [2] [µM] | IC50 [3] [µM] |
| --- | --- | --- | --- |
| < 60 | COc1cc(C(=O)NC2CCN(C(=O)CCCOc3cccc(C4CCC(=O)NC4=O)n3)CC2)ccc1Nc1ncc2c(n1)N(C1CCCC1)CC(F)(F)C(=O)N2C (stereo not drawn) [Compound 35, 4-((9-cyclopentyl-7,7-difluoro-5-methyl-6-oxo-6,7,8,9-tetrahydro-5H-pyrimido[4,5-b][1,4]diazepin-2-yl)amino)-N-(1-(4-((6-(2,6-dioxopiperidin-3-yl)pyridin-2-yl)oxy)butanoyl)piperidin-4-yl)-3-methoxybenzamide] | < 0.05 | > 10 |
| < 60 | COc1cc(C(=O)NC2CC3(CCN(CC4CCN(c5ccc(C6CCC(=O)NC6=O)nc5)CC4)CC3)C2)ccc1Nc1ncc2c(n1)N(C1CCCC1)CC(F)(F)C(=O)N2C (stereo not drawn) [Compound 39, 4-((9-cyclopentyl-7,7-difluoro-5-methyl-6-oxo-6,7,8,9-tetrahydro-5H-pyrimido[4,5-b][1,4]diazepin-2-yl)amino)-N-(7-((1-(6-(2,6-dioxopiperidin-3-yl)pyridin-3-yl)piperidin-4-yl)methyl)-7-azaspiro[3.5]nonan-2-yl)-3-methoxybenzamide] | < 0.03 | > 10 |
| < 60 | COc1cc(C(=O)NC2CCN(C(=O)CCN3CCN(c4cccc(C5CCC(=O)NC5=O)n4)CC3)CC2)ccc1Nc1ncc2c(n1)N(C1CCCC1)CC(F)(F)C(=O)N2C (stereo not drawn) [Compound 36, 4-((9-cyclopentyl-7,7-difluoro-5-methyl-6-oxo-6,7,8,9-tetrahydro-5H-pyrimido[4,5-b][1,4]diazepin-2-yl)amino)-N-(1-(3-(4-(6-(2,6-dioxopiperidin-3-yl)pyridin-2-yl)piperazin-1-yl)propanoyl)piperidin-4-yl)-3-methoxybenzamide] | < 0.03 | > 10 |
| < 60 | COc1cc(C(=O)NC2CCN(C(=O)CCN3CCN(c4ccc(C5CCC(=O)NC5=O)cc4)CC3)CC2)ccc1Nc1ncc2c(n1)N(C1CCCC1)CC(F)(F)C(=O)N2C (stereo not drawn) [Compound 5, 4-((9-cyclopentyl-7,7-difluoro-5-methyl-6-oxo-6,7,8,9-tetrahydro-5H-pyrimido[4,5-b][1,4]diazepin-2-yl)amino)-N-(1-(3-(4-(4-(2,6-dioxopiperidin-3-yl)phenyl)piperazin-1-yl)propanoyl)piperidin-4-yl)-3-methoxybenzamide] | < 0.03 | > 10 |
| < 30 | COc1cc(C(=O)NC2CC3(CCN(CC4CCN(c5ccc(C6CCC(=O)NC6=O)cc5)CC4)CC3)C2)ccc1Nc1ncc2c(n1)N(C1CCCC1)CC(F)(F)C(=O)N2C (stereo not drawn) [Compound 16, 4-((9-cyclopentyl-7,7-difluoro-5-methyl-6-oxo-6,7,8,9-tetrahydro-5H-pyrimido[4,5-b][1,4]diazepin-2-yl)amino)-N-(7-((1-(4-(2,6-dioxopiperidin-3-yl)phenyl)piperidin-4-yl)methyl)-7-azaspiro[3.5]nonan-2-yl)-3-methoxybenzamide] | < 0.03 | 9.12 |
| < 60 | COc1cc(C(=O)NC2CCCN(C(=O)CCN3CCN(c4ccc(C5CCC(=O)NC5=O)cc4F)CC3)C2)ccc1Nc1ncc2c(n1)N(C1CCCC1)CC(F)(F)C(=O)N2C (stereo not drawn) [Compound 14, 4-((9-cyclopentyl-7,7-difluoro-5-methyl-6-oxo-6,7,8,9-tetrahydro-5H-pyrimido[4,5-b][1,4]diazepin-2-yl)amino)-N-(1-(3-(4-(4-(2,6-dioxopiperidin-3-yl)-2-fluorophenyl)piperazin-1-yl)propanoyl)piperidin-3-yl)-3-methoxybenzamide] | < 0.1 | > 10 |
| < 60 | COc1cc(C(=O)NC2CCN(C(=O)CCCOc3ccc(C4CCC(=O)NC4=O)cc3)CC2)c(F)cc1Nc1ncc2c(n1)N(C1CCCC1)CC(F)(F)C(=O)N2C (stereo not drawn) [Compound 3, 4-((9-cyclopentyl-7,7-difluoro-5-methyl-6-oxo-6,7,8,9-tetrahydro-5H-pyrimido[4,5-b][1,4]diazepin-2-yl)amino)-N-(1-(4-(4-(2,6-dioxopiperidin-3-yl)phenoxy)butanoyl)piperidin-4-yl)-2-fluoro-5-methoxybenzamide] | < 0.1 | > 10 |
| < 30 | COc1cc(C(=O)NC2CCC(N(C)CC3CCN(c4ccc(C5CCC(=O)NC5=O)cc4F)CC3)CC2)ccc1Nc1ncc2c(n1)N(C1CCCC1)CC(F)(F)C(=O)N2C (stereo not drawn) [Compound 7, 4-((9-cyclopentyl-7,7-difluoro-5-methyl-6-oxo-6,7,8,9-tetrahydro-5H-pyrimido[4,5-b][1,4]diazepin-2-yl)amino)-N-((1r,4r)-4-(((1-(4-(2,6-dioxopiperidin-3-yl)-2-fluorophenyl)piperidin-4-yl)methyl)(methyl)amino)cyclohexyl)-3-methoxybenzamide] | < 0.03 | > 10 |
| < 60 | COc1cc(C(=O)NC2CC3(CCN(CC4(C)CCN(c5ccc(C6CCC(=O)NC6=O)cc5F)CC4)CC3)C2)ccc1Nc1ncc2c(n1)N(C1CCCC1)CC(F)(F)C(=O)N2C (stereo not drawn) [Compound 26, 4-((9-cyclopentyl-7,7-difluoro-5-methyl-6-oxo-6,7,8,9-tetrahydro-5H-pyrimido[4,5-b][1,4]diazepin-2-yl)amino)-N-(7-((1-(4-(2,6-dioxopiperidin-3-yl)-2-fluorophenyl)-4-methylpiperidin-4-yl)methyl)-7-azaspiro[3.5]nonan-2-yl)-3-methoxybenzamide] | < 0.05 | 5.59 |
| < 60 | COc1cc(C(=O)NC2CCN(C(=O)CCN3CCN(c4cccc(C5CCC(=O)NC5=O)c4)CC3)CC2)ccc1Nc1ncc2c(n1)N(C1CCCC1)CC(F)(F)C(=O)N2C (stereo not drawn) [Compound 6, 4-((9-cyclopentyl-7,7-difluoro-5-methyl-6-oxo-6,7,8,9-tetrahydro-5H-pyrimido[4,5-b][1,4]diazepin-2-yl)amino)-N-(1-(3-(4-(3-(2,6-dioxopiperidin-3-yl)phenyl)piperazin-1-yl)propanoyl)piperidin-4-yl)-3-methoxybenzamide] | < 0.03 | > 10 |
| < 60 | COc1cc(C(=O)NC2CCN(CCOCCOCCOCCOCCNc3ccc(C4CCC(=O)NC4=O)cc3)CC2)c(F)cc1Nc1ncc2c(n1)N(C1CCCC1)CC(F)(F)C(=O)N2C (stereo not drawn) [Compound 1, 4-((9-cyclopentyl-7,7-difluoro-5-methyl-6-oxo-6,7,8,9-tetrahydro-5H-pyrimido[4,5-b][1,4]diazepin-2-yl)amino)-N-(1-(14-((4-(2,6-dioxopiperidin-3-yl)phenyl)amino)-3,6,9,12-tetraoxatetradecyl)piperidin-4-yl)-2-fluoro-5-methoxybenzamide] | < 0.05 | 25.6 |
| < 30 | COc1cc(C(=O)NCC2CCN(CC3CCN(c4ccc(C5CCC(=O)NC5=O)cc4F)CC3)CC2)ccc1Nc1ncc2c(n1)N(C1CCCC1)CC(F)(F)C(=O)N2C (stereo not drawn) [Compound 22, 4-((9-cyclopentyl-7,7-difluoro-5-methyl-6-oxo-6,7,8,9-tetrahydro-5H-pyrimido[4,5-b][1,4]diazepin-2-yl)amino)-N-((1-((1-(4-(2,6-dioxopiperidin-3-yl)-2-fluorophenyl)piperidin-4-yl)methyl)piperidin-4-yl)methyl)-3-methoxybenzamide] | < 0.03 | > 10 |
